Experimental findings from patent publication US6716814B2, “Enhancing solubility of iron amino acid chelates and iron proteinates” (Albion International, Inc., priority 2001, dated 2004) are described below.

The nature of data set [1]: pH of hydrated iron proteinate with or without added compound (Example 4). The data set is classed as physicochemical. The following applies: compound added to iron proteinate solution, compound to iron content about 1:1 by weight. The procedure: (§1) A small amount of the solution was placed on filter paper with a pipette. […] Next, several different organic acids and sugars were added to various samples of the solution. Each was inspected both visually and by placing a small amount of solution on filter paper with a pipette.

Data set [2] can be described thus: Filter paper ring characterization of hydrated iron proteinate (Example 4). The settings on record: compound added to iron proteinate solution, about 1:1 by weight to iron. The data set is classed as physicochemical. The procedure:
An iron proteinate or iron protein hydrolysate which was hydrolyzed from a vegetable protein was formed having an iron content of about 10%. […] A small amount of the solution was placed on filter paper with a pipette. […] Next, several different organic acids and sugars were added to various samples of the solution. Each was inspected both visually and by placing a small amount of solution on filter paper with a pipette. […] This is evidenced by darker rings remaining on the filter paper which corresponded to location of the waterfront.

Data set [3] in a line: Visual inspection of hydrated iron proteinate with or without added compound (Example 4). The data set is classed as physicochemical. The following applies: compound added to iron proteinate solution, compound to iron content about 1:1 by weight. As to the method:
as §1

The nature of data set [4]: Visual inspection of aqueous iron bisglycinate with added compound (Example 3). The data set is classed as physicochemical. The following applies: compound added to aqueous iron bisglycinate, compound to iron content about 1.8:1 by weight.
A short description of data set [5]: Filter paper ring characterization of aqueous iron bisglycinate (Example 3). The data set is classed as physicochemical. The settings on record: for RING APPEARANCE: compound added to aqueous iron bisglycinate, about 1.8:1 by weight to iron, filter paper after drying.
The nature of data set [6]: Visual examination of solutions retained in test tubes (Example 1, Phase 2). The settings on record: solution retained in test tube 20 additional hours (after first 4 hours).
The nature of data set [7]: Filter paper test of hydrated samples (Example 1, Phase 1). The following applies: hydrated with water sufficient to dissolve, after 4 hours, solution placed on filter paper with pipette. The data set is classed as physicochemical. The procedure: After hydrating Sample 1 and Sample 2 with an amount of water sufficient to dissolve the respective powders and allowing 4 hours to pass, a small amount of each solution was placed on filter paper with a pipette. By placing the two solutions on paper in this manner, the respective solutions were allowed to disperse away from the point of application while leaving behind any solids that may have formed.

As to `CC(=O)O` [Acetic Acid], in data set [1], the pH is given as 3.0. The “RING APPEARANCE” value in data set [2] was “dark brown waterfront ring”. The VISUAL entry in data set [3] is reported as “no change”.

Turning to `O=C1O[C@H]([C@@H](O)CO)C(O)=C1O` [Ascorbic Acid], in data set [1], the pH is given as 4.5. Further, the figures for the VISUAL entry in data set [4] and in data set [3] were “no precipitation” and “no change”, respectively. Further, the “RING APPEARANCE” value was “dark brown waterfront ring” in data set [2] and “dark waterfront ring” in data set [5].

Compound `O=C(O)CC(O)(CC(=O)O)C(=O)O` [Citric Acid] gave a pH in data set [1] of 1.5. The “RING APPEARANCE” value in data set [2] is “dark brown waterfront ring”. In data set [3], the VISUAL entry was “no change”.

The compound `CC(O)C(=O)O` (centres unmarked) [Lactic Acid] displayed a pH in data set [1] of 1.0. The VISUAL entry in data set [4] is “no precipitation”; in data set [3], “no change”. In addition, the “RING APPEARANCE” value in data set [2] is on record as “dark brown waterfront ring”; in data set [5], “dark waterfront ring”.

`O=C(O)CC(O)C(=O)O` (centres unmarked) [Malic Acid]: the pH in data set [1] came to 2.0. In addition, the VISUAL result in data set [4] is given as “no precipitation”; in data set [3], “no change”. The “RING APPEARANCE” value in data set [2] is given as “dark brown waterfront ring”; in data set [5] it was “dark waterfront ring”. Moreover, the “mobility and solubility on the filter paper” value in data set [5] (added to separate samples of iron bisglycinate, versus control) is “enhancement of mobility and solubility”.

`NCC(=O)[O-].NCC(=O)[O-].[Fe+2]` [Sample 1, ferrous bisglycinate]: the “portion precipitated from solution (visual examination)” value in data set [6] is recorded as “approximately 50%”. Further, the “solids left behind on filter paper” value in data set [7] is on record as “small clump of precipitate”.

Regarding `O=C(O)CCC(=O)O` [Succinic Acid], the pH in data set [1] is 2.0. Also, in data set [2], the “RING APPEARANCE” value is “dark brown waterfront ring”. Moreover, the VISUAL entry in data set [3] was “no change”.

`OC[C@H]1O[C@@](CO)(O[C@H]2O[C@H](CO)[C@@H](O)[C@H](O)[C@H]2O)[C@@H](O)[C@@H]1O` [Sucrose] registered a pH in data set [1] of 7.0. For the same compound, the VISUAL entry in data set [4] is given as “precipitated solids”; in data set [3], “no change”. The entries for the “RING APPEARANCE” value in data set [2] and in data set [5] were “brown staggered rings” and “light staggered ring”, respectively.
